# Results: paper PMC6958422 (Pharmaceuticals, 2019)
# Read-outs that look alike come from different tables or passages of the source.
# Tests used:
# hA2B AR [1] = molecular target: T1, hA2B AR (Homo sapiens, UniProt P29275); conditions: cited from earlier work
# T1 construct: expressed in transfected cells; host or cells: CHO cells
# T1 sequence (P29275 1-332): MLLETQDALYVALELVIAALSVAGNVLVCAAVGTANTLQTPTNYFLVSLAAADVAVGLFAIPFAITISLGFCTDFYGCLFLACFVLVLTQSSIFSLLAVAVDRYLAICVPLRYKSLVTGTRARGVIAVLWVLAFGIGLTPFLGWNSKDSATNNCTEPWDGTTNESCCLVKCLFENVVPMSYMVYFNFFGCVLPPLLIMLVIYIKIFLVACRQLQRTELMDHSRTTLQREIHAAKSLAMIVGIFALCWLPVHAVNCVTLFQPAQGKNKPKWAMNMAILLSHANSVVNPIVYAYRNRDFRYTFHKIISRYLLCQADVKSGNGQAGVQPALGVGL
# hA1 AR [2] = molecular target: T2, hA1 AR (Homo sapiens, UniProt P30542); assay: Modulation of Forskolin-stimulated cAMP levels in hA1 CHO cells; format: cell-based; conditions: Forskolin 5 µM; for Efficacy (modulation of Forskolin-stimulated cAMP, hA1 CHO cells): normalized to DPCPX (set at 100%); for EC50: means ± SEM of four experiments, read-out: EC50 (potency to increase Forskolin-stimulated cAMP levels, hA1 CHO cells)
# T2 construct: expressed in transfected cells; host or cells: CHO cells
# T2 sequence (P30542 1-326): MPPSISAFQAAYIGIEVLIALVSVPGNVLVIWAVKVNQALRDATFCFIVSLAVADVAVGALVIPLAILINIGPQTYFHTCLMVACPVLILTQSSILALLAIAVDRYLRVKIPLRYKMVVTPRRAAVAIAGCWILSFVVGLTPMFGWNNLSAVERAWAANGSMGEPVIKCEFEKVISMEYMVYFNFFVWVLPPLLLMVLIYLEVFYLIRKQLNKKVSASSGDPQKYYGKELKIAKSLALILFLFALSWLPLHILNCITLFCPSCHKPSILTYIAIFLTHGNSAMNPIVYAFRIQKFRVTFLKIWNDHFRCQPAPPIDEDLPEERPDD
# Experimental: (§1) The amino-3,5-dicyanopyridines 1–20 were tested for their affinity at hA1, hA2A, and hA3 ARs, stably transfected in Chinese Hamster Ovary (CHO) cells, and were also studied as hA2B agonists by evaluating their stimulatory effect on cAMP production in CHO cells, stably expressing the hA2B AR.
# For membrane preparation, the culture medium was removed, and the cells were washed with phosphate-buffered saline and scraped off T75 flasks in ice-cold hypotonic buffer (5 mM Tris HCl, 1 mM EDTA, pH 7.4). The cell suspension was homogenized with a Polytron, centrifuged for 30 min at 40000 g at 4°C, and the resulting membrane pellet was used for competition binding experiments.
# CHO cells transfected with hAR subtypes were washed with phosphate-buffered saline, detached with trypsin and centrifuged for 10 min at 200 g. […] At the end of the experiments, plates were read with the Perkin Elmer EnSight Multimode Plate Reader.
# hA2B AR [3] = molecular target: T1, hA2B AR; assay: cAMP assay, stimulation of cAMP production in hA2B CHO cells (agonism); format: cell-based; conditions: for Emax at 1 µM: CHO, compound at 1µM, in comparison with NECA (1µM = 100%), read-out: Efficacy hA2B (cAMP assays) (converted); for EC50: hA2B CHO cells, means ± SEM of four assays
# Experimental: as §1
# (§2) CHO cells transfected with hA1, hA2A, hA2B, and hA3 ARs were grown adherently and maintained in Dulbecco’s modified Eagle’s medium (Sigma-Aldrich, Milan, Italy) with nutrient mixture F12, containing 10% fetal calf serum, penicillin (100 U/mL), streptomycin (100 μg/mL), l-glutamine (2 mM) and geneticin (G418; 0.2 mg/mL) at 37°C in 5% CO2/95% air until the use in cAMP assays. For membrane preparation, the culture medium was removed, and the cells were washed with phosphate-buffered saline and scraped off T75 flasks in ice-cold hypotonic buffer (5 mM Tris HCl, 1 mM EDTA, pH 7.4). The cell suspension was homogenized with a Polytron, centrifuged for 30 min at 40000 g at 4°C, and the resulting membrane pellet was used for competition binding experiments.
# CHO cells transfected with hAR subtypes were washed with phosphate-buffered saline, detached with trypsin and centrifuged for 10 min at 200 g. Cells were seeded in 96-well white half-area microplate (Perkin Elmer, Boston, USA) in a stimulation buffer composed of Hank Balanced Salt Solution (Sigma-Aldrich, Milan, Italy), 5 mM HEPES, 0.5 mM Ro 20-1724, and 0.1% BSA. cAMP levels were then quantified by using the AlphaScreen cAMP Detection Kit (Perkin Elmer) following the manufacturer’s instructions. At the end of the experiments, plates were read with the Perkin Elmer EnSight Multimode Plate Reader.
# hA1 AR [4] = molecular target: T2, hA1 AR; assay: [3H]DPCPX competition binding to hA1 CHO cell membranes
# Experimental: as §2
# (§3) All synthesized compounds have been tested for their affinity to hA1, hA2A, and hA3 ARs. Competition experiments to hA1 ARs were carried out incubating 1 nM [^3H]-8-cyclopentyl-1,3-dipropylxanthine ([^3H]-DPCPX) with membrane suspension (50 μg of protein/100 μL) and different concentrations of the examined compounds at 25°C for 90 min in 50 mM Tris HCl, pH 7.4. […] Inhibition experiments to hA2A ARs were performed incubating the radioligand [^3H]-ZM241385 (4-(2-[7-Amino-2-(2-furyl)[1,2,4]triazolo[2,3-a][1,3,5]triazin-5-ylamino]ethyl)phenol) (1 nM) with the membrane suspension (50 μg of protein/100 μL) and different concentrations of the examined compounds for 60 min at 4°C in 50 mM Tris HCl (pH 7.4), 10 mM MgCl2. Non-specific binding was determined in the presence of ZM241385 (1 μM) and was about 20% of the total binding. Competition binding experiments to A3 ARs were carried out incubating the membrane suspension (50 μg of protein/100 μL) with 0.5 nM [^125I]-N^6-(4-aminobenzyl)-N-methylcarboxamidoadenosine ([^125I]-ABMECA) in the presence of different concentration of the examined compounds for an incubation time of 120 min at 4°C in 50 mM Tris HCl (pH 7.4), 10 mM MgCl2, and 1 mM EDTA. Non-specific binding was defined as binding in the presence of 1μM ABMECA and was always < 10% of the total binding. Bound and free radioactivity were separated by filtering the assay mixture through Whatman GF/B glass fiber filters using a Brandel cell harvester (Brandel Instruments, Unterföhring, Germany). The filter bound radioactivity was counted by Packard Tri Carb 2810 TR scintillation counter (Perkin Elmer, Boston, MA, USA).
# (§4) The protein concentration was determined according to a Bio-Rad method with bovine albumin as a standard reference. Inhibitory binding constant (Ki) values were calculated from those of IC50 according to Cheng & Prusoff equation Ki = IC50/(1+[C*]/KD*), where [C*] is the concentration of the radioligand and KD* its dissociation constant. Ki and IC50 values were calculated by non-linear regression analysis using the equation for a sigmoid concentration-response curve (Graph-PAD Prism, San Diego, CA, USA).
# hA2A AR = molecular target: T3, hA2A AR (Homo sapiens, UniProt P29274); assay: [3H]ZM241385 competition binding to hA2A CHO cell membranes; conditions: for Ki: [3H]ZM241385, hA2A CHO cells, means ± SEM; for I% hA2A: percentage of inhibition at 1µM, [3H]ZM241385
# T3 construct: expressed in transfected cells; host or cells: CHO cells
# T3 sequence (P29274 whole entry): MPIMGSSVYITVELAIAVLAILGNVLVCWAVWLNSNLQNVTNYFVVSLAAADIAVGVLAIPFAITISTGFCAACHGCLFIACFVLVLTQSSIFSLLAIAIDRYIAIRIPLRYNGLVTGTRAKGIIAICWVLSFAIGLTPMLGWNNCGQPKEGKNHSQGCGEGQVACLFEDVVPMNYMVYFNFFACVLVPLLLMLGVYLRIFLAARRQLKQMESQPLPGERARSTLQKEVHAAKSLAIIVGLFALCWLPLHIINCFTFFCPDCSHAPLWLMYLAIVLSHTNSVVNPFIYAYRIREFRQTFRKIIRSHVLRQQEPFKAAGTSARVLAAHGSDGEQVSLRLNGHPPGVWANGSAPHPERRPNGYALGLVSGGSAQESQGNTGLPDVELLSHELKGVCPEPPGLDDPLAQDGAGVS
# Experimental: as §2, §3, §4
# hA3 AR = molecular target: T4, hA3 AR (Homo sapiens, UniProt P0DMS8); assay: [125I]AB-MECA competition binding to hA3 CHO cell membranes; conditions: for Ki: hA3 CHO cells, means ± SEM; for inhibition at 1 µM: percentage of inhibition at 1µM
# T4 construct: expressed in transfected cells; host or cells: CHO cells
# T4 sequence (P0DMS8 1-318): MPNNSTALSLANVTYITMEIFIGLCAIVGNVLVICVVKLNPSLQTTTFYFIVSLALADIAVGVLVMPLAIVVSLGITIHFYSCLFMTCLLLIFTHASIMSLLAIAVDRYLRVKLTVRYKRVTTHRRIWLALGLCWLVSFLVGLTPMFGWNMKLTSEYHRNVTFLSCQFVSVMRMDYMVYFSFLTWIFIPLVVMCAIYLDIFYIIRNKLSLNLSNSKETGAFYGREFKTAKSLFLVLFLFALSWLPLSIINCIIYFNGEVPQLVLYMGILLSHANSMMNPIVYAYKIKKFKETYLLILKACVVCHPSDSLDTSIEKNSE
# Experimental: as §2, §3, §4
# A2BAR = system: A2BAR; parameters: method as in PMID 31132418; conditions: rat CA1 hippocampus, cited from earlier work
# [5] = at 1µM, in comparison with NECA (1µM = 100%)
"Efficacy (modulation of Forskolin-stimulated cAMP, hA1 CHO cells) (hA1 AR [2]) [%]",Emax at 1 µM (hA2B AR [3]) [%],EC50 (hA2B AR [3]) [nM],Ki (hA1 AR [4]) [nM],Ki (hA2A AR) [nM],EC50 (hA1 AR [2]) [nM],melting point,inhibition at 1 µM (hA3 AR) [%],SMILES,further results
–,–,–,–,–,–,–,–,"N#Cc1c(N)nc(SCc2ncc[nH]2)c(C#N)c1-c1ccccc1 [LUF5833, 2-amino-6-[(1H-imidazol-2-ylmethyl)sulfanyl]-4-phenylpyridine-3,5-dicarbonitrile]",Efficacy hA2B (cAMP assays) (hA2B AR [1]; in comparison with NECA): 81%
100 ± 9,–,–,–,–,–,–,–,"CCCn1c(=O)c2[nH]c(C3CCCC3)nc2n(CCC)c1=O [DPCPX, 8-Cyclopentyl-1,3-dipropylxanthine, reference compound]",–
52 ± 4,30,36 ± 3,8.32 ± 0.78,227 ± 21,8.87 ± 0.64,257 to 259 °C (dec.),–,"CSc1ccc(-c2c(C#N)c(N)nc(SCc3ncc[nH]3)c2C#N)cc1 [Compound 11, 2-Amino-6-[(1H-imidazol-2-ylmethyl)sulfanyl]-4-[4-(methylsulfanyl)phenyl]pyridine-3,5-dicarbonitrile]",Ki (hA3 AR): 388 ± 29 nM
39 ± 4,56,27 ± 3,16 ± 2,–,19.6 ± 1.7,–,8,"C=CCOc1ccc(-c2c(C#N)c(N)nc(SCc3ncc[nH]3)c2C#N)cc1 [Compound 3, 2-Amino-6-[(1H-imidazol-2-ylmethyl)sulfanyl]-4-[4-(prop-2-en-1-yloxy)phenyl]pyridine-3,5-dicarbonitrile]",I% hA2A (hA2A AR): 17%
–,–,–,–,–,–,–,–,"CCOc1ccc(-c2c(C#N)c(N)nc(SCc3ncc[nH]3)c2C#N)cc1 [Compound 5, 2-(((1H-Imidazol-2-yl)methyl)thio)-6-amino-4-(4-ethoxyphenyl)pyridine-3,5-dicarbonitrile]",Efficacy hA2B (cAMP assays) (hA2B AR [1]; [5]): 62%
–,–,–,–,–,–,–,–,"N#Cc1c(N)nc(SCc2ncc[nH]2)c(C#N)c1-c1ccc(OCC2CC2)cc1 [Compound P453, 2-{[(1H-imidazol-2-yl)methyl]thio}-6-amino-4-[4-(cyclopropylmethoxy)phenyl]pyridine-3,5-dicarbonitrile]",Efficacy hA2B (cAMP assays) (hA2B AR [1]; [5]): 70%; Effect on PPF (paired pulse facilitation) (A2BAR): decreases PPF; Effect on A1AR-mediated fEPSP inhibition during OGD (A2BAR; two-minute oxygen and glucose deprivation insult): delays A1AR-mediated fEPSP inhibition
–,36,227 ± 21,–,–,–,230 to 232 °C,1,"CC(C)COc1ccc(-c2c(C#N)c(N)nc(SCc3ncc[nH]3)c2C#N)cc1 [Compound 2, 2-Amino-6-[(1H-imidazol-2-ylmethyl)sulfanyl]-4-[4-(2-methylpropoxy)phenyl]pyridine-3,5-dicarbonitrile]","I% hA1 (hA1 AR [4]; percentage of inhibition at 1µM, [3H]DPCPX): 26%; I% hA2A (hA2A AR): 1%"
–,1,> 1000,140 ± 12,115 ± 10,–,208 to 210 °C,19,"N#Cc1c(N)nc(NCc2ncc[nH]2)c(C#N)c1-c1ccccc1 [Compound 14, 2-Amino-6-[(1H-imidazol-2-ylmethyl)amino]-4-phenylpyridine-3,5-dicarbonitrile]",–
34 ± 3,76,18 ± 2,0.78 ± 0.08,139 ± 12,1.34 ± 0.11,223 to 225 °C (dec.),–,"N#Cc1c(N)nc(SCc2ncc[nH]2)c(C#N)c1-c1ccc(F)cc1 [Compound 8, 2-Amino-4-(4-fluorophenyl)-6-[(1H-imidazol-2-ylmethyl)sulfanyl]pyridine-3,5-dicarbonitrile]",Ki (hA3 AR): 410 ± 38 nM
